# Results reported in patent publication US20040152191A1 (priority 2001, published 2004).
# Assays:
# [1] = system: dendritic cells derived from human monocytes; experiment: Maturation of dendritic cells from human monocytes, surface markers by flow cytometry (Example 1); assay type: cell-based; conditions: D8, TNF-alpha 200 IU/ml
# Description: Peripheral blood is taken from the subject concerned. This blood is then centrifuged for 20 minutes at 200 g so as to diminish the contamination of the peripheral blood cells by platelets. The upper part containing most of the platelets and the plasma is carefully removed before the mononucleated cells are purified by centrifuging them on a Ficoll separation gradient, the density of which is 1.077. The layer of mononucleated cells is recovered, then washed twice with PBS buffer and deposited on a gradient containing 4 discontinuous densities of Percoll in order to isolate the monocytes. This gradient is constituted by concentrations of Percoll in isotonic solution of 75% (6.5 ml), 50.5% (15 ml), 40% (3.5 ml) and 30% (3 ml) in a Dulbecco medium without magnesium nor calcium and containing 5% human serum. 75 to 100 millions of cells are thus deposited in each tube and centrifuged at 1000 g during 25 minutes at 4° C. The low density cells, principally the monocytes, are harvested at the interface between the concentrations 40% and 50.5%, and washed twice with PBS. They are then resuspended in a culture medium, then deposited on culture plates containing 6 wells at a density of 5×10^6 cells per well in a final volume of 3 ml and left to adhere for 1 hour at 37° C. This adhesion step can be replaced by an additional purification of the monocytes by means of a negative purification system using a mixture of monoclonal antibodies combining an anti-CD3, CD7, CD19, CD45A, CD56 and anti-IgG with the aid of a Macs type microbead system (Miltenyi Biotec).
# The cells are then placed in culture in culture wells at 37° C. under 5% CO2. The medium which consists of RPMI contains 200 IU/ml of recombinant human GM-CSF and 500 IU/ml of recombinant human IL-4 in a final volume of 6 ml. On day 3 and day 5, the cultures are renewed by removing 3 ml and adding 3 ml of fresh medium with the cytokines. […] The cells are harvested on day 8, washed and cultivated in the absence of stimulation for a further 3 days.
# At the end of the culture period, the quality of the maturation is assessed by measuring the expression of the molecules CD80, 83, 86, 14, 1a, HLA-DR at the surface of the cells.
# [2] = system: dendritic cells derived from human monocytes; experiment: Effect of LCOS 1013 on maturation of dendritic cells derived from human monocytes, phenotype by flow cytometry (Examples 11, 12); assay type: cell-based
# Excerpt: The purified monocytes (more than 90%) were placed in culture in RPMI medium containing 10% AB human serum in the presence of growth factors GM-CSF (200 U/ml) and IL-4 (500 U/ml) for 6 days in order to induce the differentiation of the monocytes into immature dendritic cells.
# The phenotype of the cells thus generated (after 8 days of culture) was examined by flow cytometry. The expression of the marker specific for maturation of the dendritic cells (CD83), of the co-stimulatory molecules CD80, CD86, CD40, of the adhesion molecule CD54, of the class II HLA-DR molecule of the major histocompatibility complex was analyzed. The expression of the CD1a molecule, specific marker of the Langerhans cells, immature dendritic cells, was also tested.
# [3] = Donor 1, TNF-α 200 U/ml or LCOS 1013 25 μg/ml for 48 hours
# [4] = Donor 2, TNF-α 200 U/ml or LCOS 1013 25 μg/ml for 48 hours
# [5] = Donor 3, TNF-α 200 U/ml or LCOS 1013 25 μg/ml for 48 hours
# [6] = Example 12, single donor, TNF-α 200 U/ml
substance,measurement,setting,value
TNF-α,"CD14, % of labelled cells",[1]; experiment a,0.87%
same,"CD40, MFI",[1]; experiment a,1603
same,"CD54, % of labelled cells",[1]; experiment a,97.4%
same,"CD54, MFI",[1]; experiment a,295
same,"CD80, % of labelled cells",[1]; experiment a,62.1%
same,"CD80, MFI",[1]; experiment a,129
same,"CD83, % of labelled cells",[1]; experiment a,84.5%
same,"CD83, MFI",[1]; experiment a,173
same,"CD86, % of labelled cells",[1]; experiment a,98.8%
same,"CD86, MFI",[1]; experiment a,326
same,"HLA-DQ, % of labelled cells",[1]; experiment a,84.3%
same,"HLA-DQ, MFI",[1]; experiment a,157
same,"HLA-DR, % of labelled cells",[1]; experiment a,98.9%
same,"HLA-DR, MFI",[1]; experiment a,1225
same,"CD1a, % of labelled cells",[1]; experiment b,0.21%
same,"CD14, % of labelled cells",[1]; experiment b,0.61%
same,"CD40, % of labelled cells",[1]; experiment b,99.6%
same,"CD40, MFI",[1]; experiment b,1728
same,"CD54, % of labelled cells",[1]; experiment b,95.6%
same,"CD54, MFI",[1]; experiment b,255
same,"CD80, % of labelled cells",[1]; experiment b,70.5%
same,"CD80, MFI",[1]; experiment b,93.5
same,"CD83, % of labelled cells",[1]; experiment b,89.5%
same,"CD83, MFI",[1]; experiment b,196
same,"CD86, % of labelled cells",[1]; experiment b,99.5%
same,"CD86, MFI",[1]; experiment b,273
same,"HLA-DQ, % of labelled cells",[1]; experiment b,84.2%
same,"HLA-DQ, MFI",[1]; experiment b,183
same,"HLA-DR, % of labelled cells",[1]; experiment b,99.1%
same,"HLA-DR, MFI",[1]; experiment b,946
same,"CD14, % of labelled cells",[1]; experiment c,3.27%
same,"CD40, % of labelled cells",[1]; experiment c,99.3%
same,"CD40, MFI",[1]; experiment c,1480
same,"CD54, % of labelled cells",[1]; experiment c,98.2%
same,"CD54, MFI",[1]; experiment c,249
same,"CD83, % of labelled cells",[1]; experiment c,89%
same,"CD83, MFI",[1]; experiment c,166
same,"CD86, % of labelled cells",[1]; experiment c,99.5%
same,"CD86, MFI",[1]; experiment c,284
same,"HLA-DR, % of labelled cells",[1]; experiment c,99.4%
same,"HLA-DR, MFI",[1]; experiment c,694
same,"CD1a, MFI",[2]; [3],28
same,"CD1a, percentage of expression",[2]; [3],13.2%
same,"CD40, MFI",[2]; [3],(1084)
same,"CD40, percentage of expression",[2]; [3],99.4%
same,"CD54, MFI",[2]; [3],(195)
same,"CD54, percentage of expression",[2]; [3],98.4%
same,"CD80, MFI",[2]; [3],(85)
same,"CD80, percentage of expression",[2]; [3],69.7%
same,"CD83, MFI",[2]; [3],(132)
same,"CD83, percentage of expression",[2]; [3],91%
same,"CD86, MFI",[2]; [3],(209)
same,"CD86, percentage of expression",[2]; [3],99.5%
same,"HLA-DR, MFI",[2]; [3],(803)
same,"HLA-DR, percentage of expression",[2]; [3],99.5%
same,"CD1a, MFI",[2]; [4],215
same,"CD1a, percentage of expression",[2]; [4],20.6%
same,"CD40, MFI",[2]; [4],(1104)
same,"CD40, percentage of expression",[2]; [4],99.2%
same,"CD54, MFI",[2]; [4],(355)
same,"CD54, percentage of expression",[2]; [4],97.8%
same,"CD80, MFI",[2]; [4],(89)
same,"CD80, percentage of expression",[2]; [4],55.1%
same,"CD83, MFI",[2]; [4],(221)
same,"CD83, percentage of expression",[2]; [4],88%
same,"CD86, MFI",[2]; [4],(299)
same,"CD86, percentage of expression",[2]; [4],99.1%
same,"HLA-DR, MFI",[2]; [4],(1108)
same,"HLA-DR, percentage of expression",[2]; [4],98.6%
same,"CD1a, expression",[2]; [5],Neg.
same,"CD40, MFI",[2]; [5],(918)
same,"CD40, percentage of expression",[2]; [5],98.7%
same,"CD54, MFI",[2]; [5],(154)
same,"CD54, percentage of expression",[2]; [5],95.9%
same,"CD80, MFI",[2]; [5],(65)
same,"CD80, percentage of expression",[2]; [5],48.7%
same,"CD83, MFI",[2]; [5],(108)
same,"CD83, percentage of expression",[2]; [5],91.8%
same,"CD86, MFI",[2]; [5],(209)
same,"CD86, percentage of expression",[2]; [5],98.5%
same,"HLA-DR, MFI",[2]; [5],(768)
same,"HLA-DR, percentage of expression",[2]; [5],98.9%
same,"CD40, percentage of expression",[2]; [6],83.44%
same,"CD40, second line of cell (MFI)",[2]; [6],289.54
same,"CD54, percentage of expression",[2]; [6],87.12%
same,"CD54, second line of cell (MFI)",[2]; [6],137.49
same,"CD80, percentage of expression",[2]; [6],0.49%
same,"CD80, second line of cell (MFI)",[2]; [6],95.04
same,"CD83, percentage of expression",[2]; [6],70.02%
same,"CD83, second line of cell (MFI)",[2]; [6],65.55
same,"CD86, percentage of expression",[2]; [6],94.44%
same,"CD86, second line of cell (MFI)",[2]; [6],180.81
same,"HLA-DR, percentage of expression",[2]; [6],92.12%
same,"HLA-DR, second line of cell (MFI)",[2]; [6],877.54
